Measurements published in US6624159B2, “Heterocycle carboxamides as antiviral agents” (Pharmacia & Upjohn Company, priority 2000, dated 2003).
Counter-ions that a name gives are not always drawn.

Tests used:
HSV polymerase = HSV polymerase (Human herpesvirus 1, UniProt P04293); experiment: HSV polymerase assay (Table 1); assay type: biochemical
VZV polymerase = VZV polymerase (Varicella-zoster virus, UniProt P09252); experiment: VZV polymerase assay (Table 1); assay type: biochemical
Experimental: [The source words this procedure for another target and says it was used here with some conditions changed.] (§1) The HCMV polymerase assay is performed using a scintillation proximity assay (SPA) as described in several references, such as N. D. Cook, et al., Pharmaceutical Manufacturing International, pages 49-53 (1992); K. Takeuchi, Laboratory Practice, September issue (1992); U.S. Pat. No. 4,568,649 (1986); which are incorporated by reference herein. Reactions are performed in 96-well plates. The assay is conducted in 100 μl volume with 5.4 mM HEPES (pH 7.5), 11.7 mM KCl, 4.5 mM MgCl2, 0.36 mg/ml BSA, and 90 nM ^3H-dTTP. Assays are run with and without CHAPS, (3-[(3-Cholamidopropyl)-dimethylammonio]-1-propane-sulfonate) at a final concentration of 2 mM. HCMV polymerase is diluted in enzyme dilution buffer containing 50% glycerol, 250 mM NaCl, 10 mM HEPES (pH 7.5), 100 μg/ml BSA, and 0.01% sodium azide. The HCMV polymerase, which is expressed in recombinant baculovirus-infected SF-9 cells and purified according to literature procedures, is added at 10% (or 10 μl) of the final reaction volume, i.e., 100 μl. Compounds are diluted in 50% DMSO and 10 μl are added to each well. Control wells contain an equivalent concentration of DMSO. Unless noted otherwise, reactions are initiated via the addition of 6 nM biotinylated poly(dA)-oligo(dT) template/primer to reaction mixtures containing the enzyme, substrate, and compounds of interest. Plates are incubated in a 25° C. or 37° C. H2O bath and terminated via the addition of 40 μl/reaction of 0.5 M EDTA (pH 8) per well. Reactions are terminated within the time-frame during which substrate incorporation is linear and varied depending upon the enzyme and conditions used, i.e., 30 min. for HCMV polymerase. Ten μl of streptavidin-SPA beads (20 mg/ml in PBS/10% glycerol) are added following termination of the reaction. Plates are incubated 10 min. at 37° C., then equilibrated to room temperature, and counted on a Packard Topcount. Linear regressions are performed and IC50's are calculated using computer software.
(§2) A modified version of the above HCMV polymerase assay is performed as described above, but with the following changes: Compounds are diluted in 100% DMSO until final dilution into assay buffer. In the previous assay, compounds are diluted in 50% DMSO. 4.5 mM dithiothreitol (DTT) is added to the polymerase buffer.

HCMV polymerase = biological target: T1, HCMV polymerase (Human cytomegalovirus, UniProt P08546); experiment: HCMV polymerase scintillation proximity assay (modified version); assay type: biochemical; conditions: for IC50: modified SPA assay, compounds diluted in 100% DMSO, 4.5 mM DTT
T1 construct: made in house; host or cells: recombinant baculovirus-infected SF-9 cells
Experimental: as §1, §2

Sequence of HSV polymerase (P04293 whole entry): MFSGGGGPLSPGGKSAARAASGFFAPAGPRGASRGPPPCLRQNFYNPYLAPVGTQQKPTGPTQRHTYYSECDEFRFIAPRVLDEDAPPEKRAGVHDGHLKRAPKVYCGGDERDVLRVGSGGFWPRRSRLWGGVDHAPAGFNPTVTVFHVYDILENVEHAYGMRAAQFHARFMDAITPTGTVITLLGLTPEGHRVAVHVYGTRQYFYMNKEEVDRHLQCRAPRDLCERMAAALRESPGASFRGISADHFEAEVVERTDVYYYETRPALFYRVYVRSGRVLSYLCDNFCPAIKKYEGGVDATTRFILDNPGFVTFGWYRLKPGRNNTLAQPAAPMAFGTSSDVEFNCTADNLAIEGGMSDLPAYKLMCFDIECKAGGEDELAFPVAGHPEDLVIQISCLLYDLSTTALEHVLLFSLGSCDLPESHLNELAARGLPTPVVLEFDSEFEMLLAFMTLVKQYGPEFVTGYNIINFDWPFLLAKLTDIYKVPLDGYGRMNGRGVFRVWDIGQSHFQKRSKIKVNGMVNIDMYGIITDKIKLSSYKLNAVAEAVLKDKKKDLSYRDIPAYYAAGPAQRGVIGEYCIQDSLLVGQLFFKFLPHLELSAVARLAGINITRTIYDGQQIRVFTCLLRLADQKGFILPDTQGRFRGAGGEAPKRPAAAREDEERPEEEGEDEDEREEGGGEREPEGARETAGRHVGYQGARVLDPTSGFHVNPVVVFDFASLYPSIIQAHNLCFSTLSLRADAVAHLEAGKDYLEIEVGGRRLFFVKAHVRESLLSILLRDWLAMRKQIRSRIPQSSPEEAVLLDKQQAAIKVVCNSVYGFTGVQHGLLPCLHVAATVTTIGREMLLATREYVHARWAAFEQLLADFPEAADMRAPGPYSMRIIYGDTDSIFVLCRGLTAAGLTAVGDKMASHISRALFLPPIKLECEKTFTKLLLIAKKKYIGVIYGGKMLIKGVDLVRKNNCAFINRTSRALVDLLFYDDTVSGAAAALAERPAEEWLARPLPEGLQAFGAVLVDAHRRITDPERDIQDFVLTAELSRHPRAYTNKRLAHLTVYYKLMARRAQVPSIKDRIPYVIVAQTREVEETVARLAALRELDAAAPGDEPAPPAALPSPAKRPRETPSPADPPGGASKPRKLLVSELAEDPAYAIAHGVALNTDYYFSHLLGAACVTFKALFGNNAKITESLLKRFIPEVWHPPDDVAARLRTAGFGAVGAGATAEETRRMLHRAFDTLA
Sequence of VZV polymerase (P09252 whole entry): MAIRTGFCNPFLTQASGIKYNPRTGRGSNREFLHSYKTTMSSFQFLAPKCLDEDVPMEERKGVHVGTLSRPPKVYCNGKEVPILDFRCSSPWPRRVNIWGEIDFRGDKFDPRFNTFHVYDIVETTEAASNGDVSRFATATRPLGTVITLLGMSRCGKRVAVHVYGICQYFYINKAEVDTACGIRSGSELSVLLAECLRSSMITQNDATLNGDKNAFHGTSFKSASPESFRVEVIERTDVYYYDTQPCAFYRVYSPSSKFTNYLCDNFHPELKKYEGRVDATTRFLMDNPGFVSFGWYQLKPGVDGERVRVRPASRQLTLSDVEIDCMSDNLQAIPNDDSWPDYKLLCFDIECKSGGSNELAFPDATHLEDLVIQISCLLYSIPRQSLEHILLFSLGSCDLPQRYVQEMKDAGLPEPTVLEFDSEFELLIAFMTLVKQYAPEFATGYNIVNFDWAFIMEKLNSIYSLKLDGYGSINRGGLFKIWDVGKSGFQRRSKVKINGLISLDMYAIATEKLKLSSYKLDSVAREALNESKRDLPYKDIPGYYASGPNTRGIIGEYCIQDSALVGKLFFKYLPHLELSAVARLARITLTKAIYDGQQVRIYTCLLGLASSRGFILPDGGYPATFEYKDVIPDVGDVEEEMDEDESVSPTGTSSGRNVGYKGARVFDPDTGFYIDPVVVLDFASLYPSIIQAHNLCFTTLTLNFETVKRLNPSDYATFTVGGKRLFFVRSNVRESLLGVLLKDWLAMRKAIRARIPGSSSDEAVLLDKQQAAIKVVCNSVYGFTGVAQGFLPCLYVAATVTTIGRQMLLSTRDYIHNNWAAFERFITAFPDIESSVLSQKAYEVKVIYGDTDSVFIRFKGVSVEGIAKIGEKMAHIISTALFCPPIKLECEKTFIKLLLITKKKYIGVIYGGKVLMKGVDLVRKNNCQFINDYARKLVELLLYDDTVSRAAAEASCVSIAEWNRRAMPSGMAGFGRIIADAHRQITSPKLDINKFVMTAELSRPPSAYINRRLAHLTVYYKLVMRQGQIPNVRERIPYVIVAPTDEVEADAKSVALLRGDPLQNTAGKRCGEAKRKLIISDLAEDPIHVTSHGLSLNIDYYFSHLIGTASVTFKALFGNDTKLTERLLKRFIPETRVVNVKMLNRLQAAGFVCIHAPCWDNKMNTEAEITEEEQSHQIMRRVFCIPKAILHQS
T1 sequence (P08546 whole entry): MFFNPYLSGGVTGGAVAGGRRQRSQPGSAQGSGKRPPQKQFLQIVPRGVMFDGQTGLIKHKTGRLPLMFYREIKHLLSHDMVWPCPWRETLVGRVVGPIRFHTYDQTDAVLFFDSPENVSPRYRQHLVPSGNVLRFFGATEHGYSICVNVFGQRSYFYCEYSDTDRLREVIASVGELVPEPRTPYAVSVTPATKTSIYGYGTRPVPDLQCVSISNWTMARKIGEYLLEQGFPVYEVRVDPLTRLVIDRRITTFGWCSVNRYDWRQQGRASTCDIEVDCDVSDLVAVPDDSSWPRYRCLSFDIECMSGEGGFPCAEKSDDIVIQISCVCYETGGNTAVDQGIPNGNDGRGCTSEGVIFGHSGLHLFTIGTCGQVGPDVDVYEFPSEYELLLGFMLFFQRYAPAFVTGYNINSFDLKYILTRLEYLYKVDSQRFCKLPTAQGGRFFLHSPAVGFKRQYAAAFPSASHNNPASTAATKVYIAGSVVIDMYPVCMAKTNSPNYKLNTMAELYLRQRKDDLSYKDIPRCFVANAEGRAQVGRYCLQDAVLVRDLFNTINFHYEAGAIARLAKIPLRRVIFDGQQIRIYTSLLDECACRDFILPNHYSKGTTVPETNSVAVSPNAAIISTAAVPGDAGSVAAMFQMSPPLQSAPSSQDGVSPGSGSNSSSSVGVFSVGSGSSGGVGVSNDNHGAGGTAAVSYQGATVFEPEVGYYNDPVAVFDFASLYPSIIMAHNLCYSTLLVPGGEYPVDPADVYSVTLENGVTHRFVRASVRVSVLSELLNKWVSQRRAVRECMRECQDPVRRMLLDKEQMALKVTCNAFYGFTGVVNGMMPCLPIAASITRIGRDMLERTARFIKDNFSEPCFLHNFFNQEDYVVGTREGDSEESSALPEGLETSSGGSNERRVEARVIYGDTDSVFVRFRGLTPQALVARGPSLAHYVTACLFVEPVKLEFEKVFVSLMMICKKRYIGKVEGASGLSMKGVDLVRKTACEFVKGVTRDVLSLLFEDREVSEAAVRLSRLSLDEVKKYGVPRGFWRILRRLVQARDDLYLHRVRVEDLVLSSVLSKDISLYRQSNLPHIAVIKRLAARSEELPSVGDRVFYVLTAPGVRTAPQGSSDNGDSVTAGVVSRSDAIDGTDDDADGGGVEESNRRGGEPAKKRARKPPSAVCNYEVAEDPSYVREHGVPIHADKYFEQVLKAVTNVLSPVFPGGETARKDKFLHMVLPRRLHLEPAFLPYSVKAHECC

Row | SMILES | IC50 (HSV polymerase) | IC50 (VZV polymerase) | IC50 (HCMV polymerase) | melting point | inhibition at 20 µM (HCMV polymerase; at 20 μM, read-out: Polymerase HCMV, percent inhibition at the given concentration)
1 | CN1COc2cc(C#CCO)cc3c(=O)c(C(=O)NCc4ccc(Cl)cc4)cn1c23 [Example 15, N-(4-Chlorobenzyl)-9-(3-hydroxyprop-1-ynyl)-3-methyl-7-oxo-2,3-dihydro-7H-[1,3,4]oxadiazino[6,5,4-ij]quinoline-6-carboxamide] |  |  | 4190 nM | 231 to 233 °C | 
2 | O=C(NCc1ccc(Cl)cc1)c1cc2c3c(cc(CN4CCOCC4)cn3c1=O)CCC2 [Example 7, N-(4-Chlorobenzyl)-6-(morpholin-4-ylmethyl)-3-oxo-9,10dihydro-3H,8H-pyrido[3,2,1-ij]quinoline-2-carboxamide] |  |  | 4000 nM | 200 to 201 °C | 
3 | CN1CCc2cc(C#CCO)cc3c(=O)c(C(=O)NCc4ccc(Cl)cc4)cn1c23 [Example 16, N-(4-Chlorobenzyl)-5-(3-hydroxyprop-1-ynyl)-1-methyl-7-oxo-2,3-dihydro-1H,7H-pyrido[3,2,1-ij]cinnoline-8-carboxamide] |  |  | 7950 nM | 165 to 167 °C | 
4 | CN1C(=O)Cn2cc(C(=O)NCc3ccc(Cl)cc3)c(=O)c3cc(C#CCO)cc1c32 [Example 11, N-(4-Chlorobenzyl)-9-(3-hydroxy-1-propynyl)-1-methyl-2,7-dioxo-2,3-dihydro-1H,7H-pyrido[1,2,3-de]quinoxaline-6-carboxamide] |  |  | 1160 nM |  | 
5 | CC1(C)Cc2cc(C#CCO)cc3c(=O)c(C(=O)NCc4ccc(Cl)cc4)cn1c23 [Example 6, N-(4-Chlorobenzyl)-8-(3-hydroxyprop-1-ynyl)-2,2-dimethyl-6-oxo-1,2-dihydro-6H-pyrrolo[3,2,1-ij]quinoline-5-carboxamide] |  |  | 4000 nM | 228 °C (dec.) | 
6 | O=C(NCc1ccc(Cl)cc1)c1cn2c3c(cc(C#CCO)cc3c1=O)CC2CO (stereo not shown) [Example 5, N-(4-Chlorobenzyl)-2-(hydroxymethyl)-8-(3-hydroxy-1-propynyl)-6-oxo-1,2-dihydro-6H-pyrrolo[3,2,1-ij]quinoline-5-carboxamide] |  |  | 3200 nM | 224 to 225 °C | 

Now from value to compound:

Row | IC50 (HSV polymerase) | IC50 (VZV polymerase) | IC50 (HCMV polymerase) | melting point | inhibition at 20 µM (HCMV polymerase; at 20 μM, read-out: Polymerase HCMV, percent inhibition at the given concentration) | SMILES
7 | 200 nM | 90 nM | 430 nM |  |  | CC1C(=O)Nc2cc(CN3CCOCC3)cc3c(=O)c(C(=O)NCc4ccc(Cl)cc4)cn1c23 (stereo not shown) [Example 8, N-(4-Chlorobenzyl)-3-methyl-9-(4-morpholinylmethyl)-2,7-dioxo-2,3-dihydro-1H,7H-pyrido[1,2,3-de]quinoxaline-6-carboxamide hydrobromide]
8 |  |  | 650 nM | 195 to 197 °C |  | O=C(NCc1ccc(Cl)cc1)c1cn2c3c(cc(CN4CCOCC4)cc3c1=O)OCCC2 [Example 1, N-(4-Chlorobenzyl)-10-(4-morpholinylmethyl)-8-oxo-3,4-dihydro-2H,8H-[1,4]oxazepino [2,3,4-ij]quinoline-7-carboxamide]
9 | 740 nM | 520 nM | 770 nM |  |  | O=C(NCc1ccc(Cl)cc1)c1cn2c(=O)[nH]c3cc(CN4CCOCC4)cc(c1=O)c32 [Example 2, N-(4-Chlorobenzyl)-8-(4-morpholinylmethyl)-2,6-dioxo-1,2-dihydro-6H-imidazo[4,5,1-ij]quinoline-5-carboxamide]
10 |  |  | 1670 nM |  |  | O=C(NCc1ccc(Cl)cc1)c1cn2c3c(cc(CN4CCOCC4)cc3c1=O)CN(Cc1ccccc1)C2 [Example 12, 2-Benzyl-N-(4-chlorobenzyl)-9-(4-morpholinylmethyl)-7-oxo-2,3-dihydro-1H,7H-pyrido[3,2,1-ij]quinazoline-6-carboxamide]
11 |  |  |  |  | 39% | O=C(NCc1ccc(Cl)cc1)c1cn2c3c(cc(CN4CCOCC4)cc3c1=O)CN(Cc1ccccc1)C2=O [Example 13, 2-Benzyl-N-(4-chlorobenzyl)-9-(4-morpholinylmethyl)-3,7-dioxo-2,3-dihydro-1H,7H-pyrido[3,2,1-ij]quinazoline-6-carboxamide]
12 | < 510 nM | 60 nM | 140 nM |  |  | O=C1Cn2cc(C(=O)NCc3ccc(Cl)cc3)c(=O)c3cc(CN4CCOCC4)cc(c32)N1 [Example 3, N-(4-Chlorobenzyl)-9-(4-morpholinylmethyl)-2,7-dioxo-2,3-dihydro-1H,7H-pyrido[1,2,3-de]quinoxaline-6-carboxamide]
13 |  | 180 nM | 160 nM |  |  | O=C(NCc1ccc(Cl)cc1)c1cn2c3c(cc(CN4CCOCC4)cc3c1=O)N=C(NCc1ccc(Cl)cc1)C2 [Example 4, N-(4-Chlorobenzyl)-2-[(4-chlorobenzyl)amino]-9-(4-morpholinylmethyl)-7-oxo-3H,7H-pyrido[1,2,3-de]quinoxaline-6-carboxamide]
14 | 280 nM | 170 nM | 670 nM |  |  | O=C1CCn2cc(C(=O)NCc3ccc(Cl)cc3)c(=O)c3cc(CN4CCOCC4)cc(c32)N1 [Example 9, N-(4-Chlorobenzyl)-10-(4-morpholinylmethyl)-2,8-dioxo-1,2,3,4-tetrahydro-8H-[1,4]diazepino[3,2,1-ij]quinoline-7-carboxamide]
15 |  |  | 6000 nM |  |  | O=C(NCc1ccc(Cl)cc1)c1cn2c3c(cc(CN4CCOCC4)cc3c1=O)CN(Cc1ccccc1)C(=O)C2 [Example 14, 2-Benzyl-N-(4-chlorobenzyl)-10-(4-morpholinylmethyl)-3,8-dioxo-1,2,3,4-tetrahydro-8H-[1,4]diazepino[6,7,1-ij]quinoline-7-carboxamide]
16 | 310 nM | 120 nM | 310 nM | 235 to 240 °C |  | O=C(NCc1ccc(Cl)cc1)c1cn2c3c(cc(CN4CCOCC4)cc3c1=O)N=C(NCc1ccccc1)C2 [Example 10, 2-(Benzylamino)-N-(4-chlorobenzyl)-9-(4-morpholinylmethyl)-7-oxo-3H,7H-pyrido[1,2,3-de]quinoxaline-6-carboxamide]
